Assay results published in PubChem BioAssay AID2060605 (Molecular Pharmacology Branch, DTP, NCI, 2025).

System: 947758-054-R-J2-PDC spheroid growth, percent test/control
Assay: Anticancer human tumor 947758-054-R-J2-PDC patient-derived colon adenocarcinoma cell line growth inhibition [CLK]
Settings: spheroids with HUVEC and MSC; for IC50: curve of first compound; for viability, T/C: stronger effect = lower value
Outline: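 Multi-cell-type spheroids combined patient-derived tumor cells with HUVEC endothelial cells and human mesenchymal stem cells. Paired agents were dosed in half-log steps down from about clinical Cmax, or from 10 microM where Cmax was unknown.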

[1] = second compound 0.0316 µM, first compound 0.0316 µM
[2] = second compound 0.0316 µM, first compound 0.1 µM
[3] = second compound 0.0316 µM, first compound 0.316 µM
[4] = second compound 0.0316 µM, first compound 1 µM
[5] = second compound 0.0316 µM, first compound 3.16 µM
[6] = second compound 0.0316 µM, first compound 10 µM
[7] = second compound 0.1 µM, first compound 0.0316 µM
[8] = second compound 0.1 µM, first compound 0.1 µM
[9] = second compound 0.1 µM, first compound 0.316 µM
[10] = second compound 0.1 µM, first compound 1 µM
[11] = second compound 0.1 µM, first compound 3.16 µM
[12] = second compound 0.1 µM, first compound 10 µM
[13] = second compound 0.316 µM, first compound 0.0316 µM
[14] = second compound 0.316 µM, first compound 0.1 µM
[15] = second compound 0.316 µM, first compound 0.316 µM
[16] = second compound 0.316 µM, first compound 1 µM
[17] = second compound 0.316 µM, first compound 3.16 µM
[18] = second compound 0.316 µM, first compound 10 µM
[19] = second compound 1 µM, first compound 0.0316 µM
[20] = second compound 1 µM, first compound 0.1 µM
[21] = second compound 1 µM, first compound 0.316 µM
[22] = second compound 1 µM, first compound 1 µM
[23] = second compound 1 µM, first compound 3.16 µM
[24] = second compound 1 µM, first compound 10 µM
[25] = second compound 3.16 µM, first compound 0.0316 µM
[26] = second compound 3.16 µM, first compound 0.1 µM
[27] = second compound 3.16 µM, first compound 0.316 µM
[28] = second compound 3.16 µM, first compound 1 µM
[29] = second compound 3.16 µM, first compound 3.16 µM
[30] = second compound 3.16 µM, first compound 10 µM
[31] = second compound 10 µM, first compound 0.0316 µM
[32] = second compound 10 µM, first compound 0.1 µM
[33] = second compound 10 µM, first compound 0.316 µM
[34] = second compound 10 µM, first compound 1 µM
[35] = second compound 10 µM, first compound 3.16 µM
[36] = second compound 10 µM, first compound 10 µM
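Also: spheroids exposed to compounds for one week before readout.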
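For viability, T/C in this document: 100% = DMSO vehicle control wells.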

## Nc1ccn(C2OC(CO)C(O)C2(F)F)c(=O)n1 (stereo unspecified) + CNC(=O)c1ccc(Nc2nc(OC3CCCC3)c3c(-c4ccc5nc(C)oc5c4)c[nH]c3n2)c(OC)c1
Second compound 0.0316 µM
  IC50: < 31.6 nM
Second compound 0.1 µM
  IC50: < 31.6 nM
Second compound 0.316 µM
  IC50: < 31.6 nM
Second compound 1 µM
  IC50: < 31.6 nM
Second compound 3.16 µM
  IC50: < 31.6 nM
Second compound 10 µM
  IC50: < 31.6 nM
[1]
  viability, T/C: 21.3%
[2]
  viability, T/C: 9.39%
[3]
  viability, T/C: 10.4%
[4]
  viability, T/C: 12.7%
[5]
  viability, T/C: 10.1%
[6]
  viability, T/C: 7.91%
[7]
  viability, T/C: 25.7%
[8]
  viability, T/C: 7.76%
[9]
  viability, T/C: 9.74%
[10]
  viability, T/C: 9.84%
[11]
  viability, T/C: 9.52%
[12]
  viability, T/C: 7.25%
[13]
  viability, T/C: 25.4%
[14]
  viability, T/C: 8.69%
[15]
  viability, T/C: 7.46%
[16]
  viability, T/C: 11.1%
[17]
  viability, T/C: 8.56%
[18]
  viability, T/C: 6.75%
[19]
  viability, T/C: 29.1%
[20]
  viability, T/C: 8.29%
[21]
  viability, T/C: 5.33%
[22]
  viability, T/C: 7.16%
[23]
  viability, T/C: 6.13%
[24]
  viability, T/C: 8.82%
[25]
  viability, T/C: 19.2%
[26]
  viability, T/C: 6.89%
[27]
  viability, T/C: 6.64%
[28]
  viability, T/C: 7.3%
[29]
  viability, T/C: 6.33%
[30]
  viability, T/C: 4.72%
[31]
  viability, T/C: 18.2%
[32]
  viability, T/C: 9.83%
[33]
  viability, T/C: 3.87%
[34]
  viability, T/C: 5.96%
[35]
  viability, T/C: 4.8%
[36]
  viability, T/C: 3.11%

## C=C(F)C(=O)N1CCN(c2nc(OCC3CCCN3C)nc3c2CCN(c2cccc4cccc(Cl)c24)C3)CC1CC#N (stereo unspecified) + CNC(=O)c1ccc(Nc2nc(OC3CCCC3)c3c(-c4ccc5nc(C)oc5c4)c[nH]c3n2)c(OC)c1
Second compound 0.0316 µM
  IC50: 6100 nM
Second compound 0.1 µM
  IC50: 4950 nM
Second compound 0.316 µM
  IC50: 3830 nM
Second compound 1 µM
  IC50: < 31.6 nM
Second compound 3.16 µM
  IC50: < 31.6 nM
Second compound 10 µM
  IC50: < 31.6 nM
[1]
  viability, T/C: 88.6%
[2]
  viability, T/C: 66.7%
[3]
  viability, T/C: 83.4%
[4]
  viability, T/C: 99.7%
[5]
  viability, T/C: 132%
[6]
  viability, T/C: 16.8%
[7]
  viability, T/C: 96.9%
[8]
  viability, T/C: 71.1%
[9]
  viability, T/C: 79.6%
[10]
  viability, T/C: 98%
[11]
  viability, T/C: 76.9%
[12]
  viability, T/C: 7.83%
[13]
  viability, T/C: 76.9%
[14]
  viability, T/C: 65.9%
[15]
  viability, T/C: 57.6%
[16]
  viability, T/C: 77.2%
[17]
  viability, T/C: 59.2%
[18]
  viability, T/C: 3.73%
[19]
  viability, T/C: 38.5%
[20]
  viability, T/C: 34.6%
[21]
  viability, T/C: 35.7%
[22]
  viability, T/C: 54.8%
[23]
  viability, T/C: 47.5%
[24]
  viability, T/C: 0.18%
[25]
  viability, T/C: 41.5%
[26]
  viability, T/C: 34.3%
[27]
  viability, T/C: 31.2%
[28]
  viability, T/C: 47.8%
[29]
  viability, T/C: 32.4%
[30]
  viability, T/C: 0.49%
[31]
  viability, T/C: 29.4%
[32]
  viability, T/C: 33.3%
[33]
  viability, T/C: 30%
[34]
  viability, T/C: 30.2%
[35]
  viability, T/C: 21.6%
[36]
  viability, T/C: 0.36%

## CC(C)CC(NC(=O)C(Cc1ccccc1)NC(=O)c1cnccn1)B(O)O (stereo unspecified) + CN1CCN(c2cc(C(=O)Nc3cc4cc(-c5cnn(C)c5)ccc4cn3)ccn2)CC1
Second compound 0.0316 µM
  IC50: 1.92 nM
Second compound 0.1 µM
  IC50: 2.41 nM
Second compound 0.316 µM
  IC50: < 0.949 nM
Second compound 1 µM
  IC50: < 0.949 nM
Second compound 3.16 µM
  IC50: < 0.949 nM
Second compound 10 µM
  IC50: < 0.949 nM
Second compound 0.0316 µM, first compound 0.000949 µM
  viability, T/C: 121%
Second compound 0.0316 µM, first compound 0.003 µM
  viability, T/C: 5.43%
Second compound 0.0316 µM, first compound 0.00949 µM
  viability, T/C: 0.78%
Second compound 0.0316 µM, first compound 0.03 µM
  viability, T/C: 0.27%
Second compound 0.0316 µM, first compound 0.0949 µM
  viability, T/C: 0.29%
Second compound 0.0316 µM, first compound 0.3 µM
  viability, T/C: 0.27%
Second compound 0.1 µM, first compound 0.000949 µM
  viability, T/C: 229%
Second compound 0.1 µM, first compound 0.003 µM
  viability, T/C: 7.59%
Second compound 0.1 µM, first compound 0.00949 µM
  viability, T/C: 0.31%
Second compound 0.1 µM, first compound 0.03 µM
  viability, T/C: 0.29%
Second compound 0.1 µM, first compound 0.0949 µM
  viability, T/C: 0.32%
Second compound 0.1 µM, first compound 0.3 µM
  viability, T/C: 0.3%
Second compound 0.316 µM, first compound 0.000949 µM
  viability, T/C: 1.38%
Second compound 0.316 µM, first compound 0.003 µM
  viability, T/C: 0.21%
Second compound 0.316 µM, first compound 0.00949 µM
  viability, T/C: 0.22%
Second compound 0.316 µM, first compound 0.03 µM
  viability, T/C: 0.22%
Second compound 0.316 µM, first compound 0.0949 µM
  viability, T/C: 0.2%
Second compound 0.316 µM, first compound 0.3 µM
  viability, T/C: 0.23%
Second compound 1 µM, first compound 0.000949 µM
  viability, T/C: 0.14%
Second compound 1 µM, first compound 0.003 µM
  viability, T/C: 0.15%
Second compound 1 µM, first compound 0.00949 µM
  viability, T/C: 0.15%
Second compound 1 µM, first compound 0.03 µM
  viability, T/C: 0.16%
Second compound 1 µM, first compound 0.0949 µM
  viability, T/C: 0.18%
Second compound 1 µM, first compound 0.3 µM
  viability, T/C: 0.15%
Second compound 3.16 µM, first compound 0.000949 µM
  viability, T/C: 0.21%
Second compound 3.16 µM, first compound 0.003 µM
  viability, T/C: 0.12%
Second compound 3.16 µM, first compound 0.00949 µM
  viability, T/C: 0.12%
Second compound 3.16 µM, first compound 0.03 µM
  viability, T/C: 0.13%
Second compound 3.16 µM, first compound 0.0949 µM
  viability, T/C: 0.21%
Second compound 3.16 µM, first compound 0.3 µM
  viability, T/C: 2.33%
Second compound 10 µM, first compound 0.000949 µM
  viability, T/C: 0.34%
Second compound 10 µM, first compound 0.003 µM
  viability, T/C: 0.18%
Second compound 10 µM, first compound 0.00949 µM
  viability, T/C: 1.25%
Second compound 10 µM, first compound 0.03 µM
  viability, T/C: 0.16%
Second compound 10 µM, first compound 0.0949 µM
  viability, T/C: 0.21%
Second compound 10 µM, first compound 0.3 µM
  viability, T/C: 1.68%
